The source made the active and inactive calls. No cut-off for these calls is given here.
Tests used:
[1] = Metabolic stability in human liver microsomes assessed as half life; format: ADME, Microsome
[2] = Metabolic stability in rat liver microsomes assessed as half life; format: ADME, Microsome
[3] = Metabolic stability in mouse liver microsomes assessed as half life; format: ADME, Microsome
[4] = Cmax in Balb/c mouse at 10 mg/kg, po; format: ADME, organism-based; set-up: route oral, dose 10 mg/kg; conditions: in vivo
[5] = Drug concentration in Balb/c mouse at 10 mg/kg, po measured after 24 hrs; format: ADME, organism-based; conditions: in vivo, read-out: Drug uptake
[6] = molecular target: T1, Nuclear receptor ROR-gamma (Homo sapiens, UniProt P51449); test: Inverse agonist activity at RORgammat in CD3 and CD28-stimulated human whole blood assessed as reduction in IL17A production incubated for 1 hr before CD3 and CD28 stimulation for 20 hrs by AlphaLISA method; format: tissue-based
T1 sequence (P51449 whole entry): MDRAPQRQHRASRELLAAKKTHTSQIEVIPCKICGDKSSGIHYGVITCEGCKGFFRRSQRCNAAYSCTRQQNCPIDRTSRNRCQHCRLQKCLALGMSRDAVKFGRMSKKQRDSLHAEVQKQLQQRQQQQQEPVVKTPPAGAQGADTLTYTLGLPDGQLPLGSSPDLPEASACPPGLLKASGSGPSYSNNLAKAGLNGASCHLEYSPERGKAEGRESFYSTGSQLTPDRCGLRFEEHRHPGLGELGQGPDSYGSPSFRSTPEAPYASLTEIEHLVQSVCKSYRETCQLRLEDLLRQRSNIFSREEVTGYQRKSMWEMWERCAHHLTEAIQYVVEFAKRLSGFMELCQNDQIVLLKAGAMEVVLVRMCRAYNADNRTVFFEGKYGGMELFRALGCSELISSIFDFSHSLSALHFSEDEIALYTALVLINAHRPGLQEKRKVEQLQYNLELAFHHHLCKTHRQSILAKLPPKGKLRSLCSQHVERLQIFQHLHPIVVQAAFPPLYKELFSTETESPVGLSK

[7] = GSH reactivity in human liver cytosol assessed as GSH adduct formation; format: ADME, subcellular, Cytoplasm
[8] = molecular target: T1, Nuclear receptor ROR-gamma; test: Inverse agonist activity at Gal4-fused RORgammat (unknown origin)
[9] = system: Mus musculus; test: Protection against recombinant human IL23-induced acanthosis C57BL/6 mouse model assessed as reduction in ear swelling at 50 mg/kg, po administered bid for 9 days; format: functional, organism-based; conditions: time 9.0 day

half-life [1] | half-life [2] | half-life [3] | Structure (SMILES) | also measured
> 2 h | > 2 h | > 2 h | Cc1cc2c(cc1C(F)(C(F)(F)F)C(F)(F)F)CC[C@H]1N(C(=O)[C@H]3CC[C@H](C(=O)O)CC3)CC[C@@]21S(=O)(=O)c1ccc(F)cc1 | –
– | – | – | O=C(O)[C@H]1CC[C@H](C(=O)N2CC[C@@]3(S(=O)(=O)c4ccc(F)cc4)c4ccc(C(F)(C(F)(F)F)C(F)(F)F)cc4CC[C@@H]23)CC1 | Cmax [4]: 1400 nM; concentration at 24 h [5]: 400 nM
– | – | – | C[C@H]1C[C@H](C(=O)O)CC[C@H]1C(=O)N1CC[C@@]2(S(=O)(=O)c3ccccc3)c3ccc(C(F)(C(F)(F)F)C(F)(F)F)cc3CC[C@@H]12 | EC50 [6]: 52 nM
> 2 h | 1.38 h | > 2 h | O=C(O)[C@H]1CC[C@H](C(=O)N2CC[C@@]3(S(=O)(=O)c4ccc(F)cc4)c4cc(Cl)c(C(F)(C(F)(F)F)C(F)(F)F)cc4CC[C@@H]23)CC1 | –
> 2 h | > 2 h | > 2 h | C[C@H]1C[C@H](C(=O)O)CC[C@H]1C(=O)N1CC[C@@]2(S(=O)(=O)c3ccc(F)cc3)c3ccc(C(F)(C(F)(F)F)C(F)(F)F)cc3CC[C@@H]12 [BMS-986251] | Activity [7]: 6%
> 2 h | 1.45 h | > 2 h | N#Cc1cc2c(cc1C(F)(C(F)(F)F)C(F)(F)F)CC[C@H]1N(C(=O)[C@H]3CC[C@H](C(=O)O)CC3)CC[C@@]21S(=O)(=O)c1ccc(F)cc1 | Cmax [4]: 8600 nM; concentration at 24 h [5]: 1600 nM; EC50 [6]: 13 nM; EC50 [8]: 17 nM
– | – | – | O=C(O)[C@H]1CC[C@H](C(=O)N2CC[C@](c3ccc(C(F)(C(F)(F)F)C(F)(F)F)cc3)(S(=O)(=O)c3ccc(F)cc3)C2)CC1 | inhibition [9]: Active

From ChEMBL document CHEMBL4699477, “Tricyclic sulfones as potent, selective and efficacious RORγt inverse agonists - Exploring C6 and C8 SAR using late-stage functionalization” (Bioorg Med Chem Lett, 2020)
